Experimental data: the NIST ThermoML archive (doi:10.1016/j.fluid.2017.12.010)
± gives the expanded uncertainty stated by the source.

Conditions: Liquid, Vibrating tube method

CCCCCCCCCC [decane]
Conditions	mass density [kg/m3]
283.55 K, 5000 kPa	742 ± 3
283.56 K, 3000 kPa	740 ± 3
283.56 K, 20000 kPa	752 ± 3
283.56 K, 30000 kPa	758 ± 3
283.56 K, 40000 kPa	763 ± 3
283.56 K, 50000 kPa	769 ± 3
283.56 K, 60000 kPa	774 ± 3
283.56 K, 70000 kPa	779 ± 3
283.56 K, 80000 kPa	783 ± 3
283.56 K, 90000 kPa	788 ± 3
283.57 K, 1000 kPa	739 ± 3
283.57 K, 10000 kPa	745 ± 3
283.58 K, 100 kPa	738 ± 3
293.48 K, 100 kPa	731 ± 3
293.48 K, 1000 kPa	731 ± 3
293.49 K, 5000 kPa	734 ± 3
293.49 K, 10000 kPa	738 ± 3
293.49 K, 20000 kPa	745 ± 3
293.5 K, 30000 kPa	751 ± 3
293.5 K, 40000 kPa	757 ± 3
293.5 K, 50000 kPa	763 ± 3
293.5 K, 100000 kPa	787 ± 3
293.51 K, 60000 kPa	768 ± 3
293.51 K, 70000 kPa	773 ± 3
293.51 K, 80000 kPa	778 ± 3
293.51 K, 90000 kPa	783 ± 3
303.42 K, 100 kPa	723 ± 3
303.42 K, 1000 kPa	724 ± 3
303.42 K, 10000 kPa	731 ± 3
303.42 K, 30000 kPa	745 ± 3
303.42 K, 40000 kPa	751 ± 3
303.42 K, 70000 kPa	768 ± 3
303.42 K, 80010 kPa	773 ± 3
303.42 K, 90000 kPa	777 ± 3
303.43 K, 5000 kPa	727 ± 3
303.43 K, 20000 kPa	738 ± 3
303.43 K, 50000 kPa	757 ± 3
303.43 K, 60000 kPa	762 ± 3
303.43 K, 100000 kPa	782 ± 3
313.35 K, 100 kPa	716 ± 3
313.35 K, 1000 kPa	717 ± 3
313.35 K, 5000 kPa	721 ± 3
313.35 K, 40000 kPa	746 ± 3
313.36 K, 20000 kPa	732 ± 3
313.36 K, 50000 kPa	752 ± 3
313.36 K, 70000 kPa	763 ± 3
313.36 K, 80000 kPa	768 ± 3
313.36 K, 90000 kPa	773 ± 3
313.36 K, 100000 kPa	777 ± 3
313.37 K, 10000 kPa	725 ± 3
313.37 K, 30000 kPa	739 ± 3
313.37 K, 60000 kPa	757 ± 3
323.24 K, 100 kPa	708 ± 3
323.24 K, 1000 kPa	709 ± 3
323.24 K, 100000 kPa	771 ± 3
323.25 K, 5000 kPa	712 ± 3
323.25 K, 10000 kPa	717 ± 3
323.25 K, 20000 kPa	725 ± 3
323.25 K, 30000 kPa	732 ± 3
323.25 K, 40000 kPa	739 ± 3
323.25 K, 50000 kPa	745 ± 3
323.25 K, 60000 kPa	751 ± 3
323.25 K, 70000 kPa	757 ± 3
323.25 K, 80000 kPa	762 ± 3
323.25 K, 90000 kPa	767 ± 3
333.12 K, 5000 kPa	705 ± 3
333.12 K, 10000 kPa	710 ± 3
333.12 K, 20000 kPa	718 ± 3
333.13 K, 100 kPa	700 ± 3
333.13 K, 1000 kPa	701 ± 3
333.13 K, 30000 kPa	726 ± 3
333.13 K, 80000 kPa	757 ± 3
333.13 K, 90000 kPa	762 ± 3
333.13 K, 100000 kPa	767 ± 3
333.14 K, 40000 kPa	733 ± 3
333.14 K, 50000 kPa	740 ± 3
333.14 K, 60000 kPa	746 ± 3
333.14 K, 70000 kPa	751 ± 3
343.01 K, 100 kPa	693 ± 3
343.01 K, 1000 kPa	694 ± 3
343.01 K, 10000 kPa	703 ± 3
343.01 K, 20000 kPa	712 ± 3
343.01 K, 30000 kPa	720 ± 3
343.01 K, 40000 kPa	727 ± 3
343.01 K, 50000 kPa	734 ± 3
343.01 K, 60000 kPa	740 ± 3
343.02 K, 5000 kPa	698 ± 3
343.02 K, 70000 kPa	746 ± 3
343.02 K, 80000 kPa	752 ± 3
343.02 K, 90000 kPa	757 ± 3
343.02 K, 100000 kPa	762 ± 3
352.87 K, 100 kPa	686 ± 3
352.87 K, 1000 kPa	687 ± 3
352.87 K, 5000 kPa	691 ± 3
352.88 K, 10000 kPa	696 ± 3
352.88 K, 20000 kPa	706 ± 3
352.88 K, 30000 kPa	714 ± 3
352.88 K, 40000 kPa	722 ± 3
352.88 K, 50000 kPa	729 ± 3
352.88 K, 60000 kPa	735 ± 3
352.89 K, 70000 kPa	741 ± 3
352.89 K, 80000 kPa	747 ± 3
352.89 K, 90000 kPa	753 ± 3
352.89 K, 100000 kPa	758 ± 3
362.69 K, 100 kPa	677 ± 3
362.69 K, 1000 kPa	678 ± 3
362.7 K, 5000 kPa	683 ± 3
362.7 K, 10000 kPa	689 ± 3
362.71 K, 20000 kPa	699 ± 3
362.71 K, 30000 kPa	708 ± 3
362.71 K, 40000 kPa	716 ± 3
362.71 K, 50000 kPa	723 ± 3
362.71 K, 60000 kPa	730 ± 3
362.72 K, 70000 kPa	736 ± 3
362.72 K, 80000 kPa	742 ± 3
362.72 K, 90000 kPa	747 ± 3
362.72 K, 100000 kPa	753 ± 3

CCCCCCCCCCCC [dodecane]
Conditions	mass density [kg/m3]
283.29 K, 100 kPa	756 ± 3
283.29 K, 1000 kPa	757 ± 3
283.29 K, 3000 kPa	758 ± 3
283.3 K, 5000 kPa	760 ± 3
283.3 K, 10000 kPa	763 ± 3
283.3 K, 30000 kPa	775 ± 3
283.3 K, 40000 kPa	780 ± 3
283.3 K, 50000 kPa	785 ± 3
283.3 K, 60000 kPa	790 ± 3
283.31 K, 20000 kPa	769 ± 3
283.31 K, 70000 kPa	795 ± 3
283.32 K, 80000 kPa	799 ± 3
283.32 K, 90000 kPa	803 ± 3
293.17 K, 100 kPa	749 ± 3
293.18 K, 1000 kPa	750 ± 3
293.19 K, 5000 kPa	753 ± 3
293.19 K, 10000 kPa	756 ± 3
293.19 K, 20000 kPa	763 ± 3
293.19 K, 30000 kPa	769 ± 3
293.19 K, 40000 kPa	774 ± 3
293.19 K, 50000 kPa	780 ± 3
293.19 K, 70000 kPa	789 ± 3
293.19 K, 80000 kPa	794 ± 3
293.19 K, 90000 kPa	798 ± 3
293.19 K, 100000 kPa	802 ± 3
293.2 K, 60000 kPa	785 ± 3
303.04 K, 30000 kPa	762 ± 3
303.04 K, 100000 kPa	797 ± 3
303.05 K, 100 kPa	742 ± 3
303.05 K, 1000 kPa	743 ± 3
303.05 K, 5000 kPa	746 ± 3
303.05 K, 20000 kPa	756 ± 3
303.05 K, 50000 kPa	774 ± 3
303.05 K, 60000 kPa	779 ± 3
303.05 K, 70000 kPa	784 ± 3
303.05 K, 80000 kPa	789 ± 3
303.05 K, 90000 kPa	793 ± 3
303.06 K, 10000 kPa	749 ± 3
303.06 K, 40000 kPa	768 ± 3
312.89 K, 100 kPa	736 ± 3
312.89 K, 1000 kPa	737 ± 3
312.9 K, 5000 kPa	740 ± 3
312.9 K, 10000 kPa	744 ± 3
312.9 K, 20000 kPa	751 ± 3
312.9 K, 30000 kPa	757 ± 3
312.9 K, 40000 kPa	763 ± 3
312.9 K, 50000 kPa	769 ± 3
312.9 K, 60000 kPa	774 ± 3
312.9 K, 70000 kPa	780 ± 3
312.9 K, 80000 kPa	784 ± 3
312.9 K, 90000 kPa	789 ± 3
312.9 K, 100000 kPa	793 ± 3
322.83 K, 100 kPa	727 ± 3
322.83 K, 1000 kPa	728 ± 3
322.83 K, 5000 kPa	732 ± 3
322.83 K, 10000 kPa	736 ± 3
322.83 K, 20000 kPa	743 ± 3
322.83 K, 30000 kPa	750 ± 3
322.83 K, 40000 kPa	756 ± 3
322.83 K, 50000 kPa	762 ± 3
322.83 K, 60000 kPa	768 ± 3
322.83 K, 70000 kPa	773 ± 3
322.83 K, 80000 kPa	778 ± 3
322.83 K, 90000 kPa	783 ± 3
322.83 K, 100000 kPa	787 ± 3
332.74 K, 100 kPa	720 ± 3
332.74 K, 1000 kPa	721 ± 3
332.74 K, 5000 kPa	725 ± 3
332.74 K, 10000 kPa	729 ± 3
332.74 K, 20000 kPa	737 ± 3
332.74 K, 30000 kPa	744 ± 3
332.74 K, 40000 kPa	750 ± 3
332.74 K, 50000 kPa	757 ± 3
332.74 K, 60000 kPa	762 ± 3
332.74 K, 70000 kPa	768 ± 3
332.74 K, 80000 kPa	773 ± 3
332.74 K, 90000 kPa	778 ± 3
332.75 K, 100000 kPa	782 ± 3
342.67 K, 100 kPa	713 ± 3
342.67 K, 1000 kPa	714 ± 3
342.67 K, 5000 kPa	718 ± 3
342.67 K, 10000 kPa	722 ± 3
342.67 K, 20000 kPa	731 ± 3
342.67 K, 30000 kPa	738 ± 3
342.67 K, 40000 kPa	745 ± 3
342.67 K, 50000 kPa	751 ± 3
342.67 K, 60000 kPa	757 ± 3
342.67 K, 69990 kPa	763 ± 3
342.67 K, 80000 kPa	768 ± 3
342.67 K, 90000 kPa	773 ± 3
342.67 K, 100000 kPa	778 ± 3
352.58 K, 100 kPa	707 ± 3
352.58 K, 1000 kPa	708 ± 3
352.58 K, 5000 kPa	712 ± 3
352.58 K, 10000 kPa	716 ± 3
352.58 K, 20000 kPa	725 ± 3
352.58 K, 30000 kPa	733 ± 3
352.58 K, 40000 kPa	740 ± 3
352.58 K, 50000 kPa	747 ± 3
352.58 K, 60000 kPa	753 ± 3
352.58 K, 70000 kPa	759 ± 3
352.58 K, 80000 kPa	764 ± 3
352.58 K, 90000 kPa	769 ± 3
352.58 K, 100000 kPa	774 ± 3
362.48 K, 5000 kPa	704 ± 3
362.48 K, 10000 kPa	709 ± 3
362.48 K, 20000 kPa	718 ± 3
362.48 K, 30000 kPa	726 ± 3
362.48 K, 50000 kPa	741 ± 3
362.48 K, 80000 kPa	759 ± 3
362.48 K, 90000 kPa	764 ± 3
362.49 K, 100 kPa	699 ± 3
362.49 K, 1000 kPa	700 ± 3
362.49 K, 40000 kPa	734 ± 3
362.49 K, 60000 kPa	747 ± 3
362.49 K, 70000 kPa	753 ± 3
362.49 K, 100000 kPa	769 ± 3
